“And” between values parts separate entries of the source, which are not always exact repeats. Equal entries are not always repeated. Inconclusive results and toxic doses are left out.
Test system: CD2F1 mice, L1210 leukemia ip, survival T/C
Assay: NCI In Vivo Anticancer Drug Screen. Data for tumor model L1210 Leukemia (intraperitoneal) in CD2F1 (CDF1) mice
Details: higher = longer survival
Outline: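 Ratio T/C, where T is the treated-group value and C the vehicle-dosed control value, from mice implanted with a transplantable tumor.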

[1] = endpoint: mean survival time, dose: 100.0 mg/kg/injection, schedule: Q04DX002 (ip), vehicle: saline with Tween-80
[2] = endpoint: mean survival time, dose: 200.0 mg/kg/injection, schedule: Q04DX002 (ip), vehicle: saline with Tween-80
[3] = endpoint: mean survival time, dose: 100.0 mg/kg/injection, schedule: Q04DX003 (ip), vehicle: saline with Tween-80
[4] = endpoint: mean survival time, dose: 200.0 mg/kg/injection, schedule: Q04DX003 (ip), vehicle: saline with Tween-80
[5] = endpoint: mean survival time, dose: 400.0 mg/kg/injection, schedule: Q04DX003 (ip), vehicle: saline with Tween-80
[6] = endpoint: mean survival time, dose: 100.0 mg/kg/injection, schedule: Q01DX001 (ip), vehicle: saline
[7] = endpoint: mean survival time, dose: 200.0 mg/kg/injection, schedule: Q01DX001 (ip), vehicle: saline
[8] = endpoint: mean survival time, dose: 100.0 mg/kg/injection, schedule: Q01DX009 (ip), vehicle: saline with Tween-80
[9] = endpoint: mean survival time, dose: 200.0 mg/kg/injection, schedule: Q01DX009 (ip), vehicle: saline with Tween-80
[10] = endpoint: mean survival time, dose: 25.0 mg/kg/injection, schedule: Q01DX009 (ip), vehicle: saline with Tween-80
[11] = endpoint: mean survival time, dose: 100.0 mg/kg/injection, schedule: Q01DX001 (ip), vehicle: Klucel (hydroxypropylcellulose) (HPC)
[12] = endpoint: mean survival time, dose: 200.0 mg/kg/injection, schedule: Q01DX001 (ip), vehicle: Klucel (hydroxypropylcellulose) (HPC)

## O=C(Nc1ccccc1[N+](=O)[O-])OC/C=C/c1ccccc1
[1]
  T/C: 91 % of control
[2]
  T/C: 91 % of control
endpoint: mean survival time, dose: 400.0 mg/kg/injection, schedule: Q04DX002 (ip), vehicle: saline with Tween-80
  T/C: 87 % of control

## N#CCCC1(CCC#N)c2ccccc2-c2ccccc21
[3]
  T/C: 95 % of control
[4]
  T/C: 100 % of control
[5]
  T/C: 105 % of control

## C#CC12CCCCN1CCC2 (stereo not drawn)
[6]
  T/C: 93 % of control
[7]
  T/C: 97 % of control

## CN(C)C/C(=N\Oc1ccc([N+](=O)[O-])cc1[N+](=O)[O-])c1ccc(Cl)cc1
endpoint: mean survival time, dose: 50.0 mg/kg/injection, schedule: Q01DX009 (ip), vehicle: saline with Tween-80
  T/C: 91 % of control
endpoint: mean survival time, dose: 100.0 mg/kg/injection, schedule: Q01DX001 (ip), vehicle: saline with Tween-80
  T/C: 98 % of control
[8]
  T/C: 88 % of control
endpoint: mean survival time, dose: 200.0 mg/kg/injection, schedule: Q01DX001 (ip), vehicle: saline with Tween-80
  T/C: 102 % of control
[9]
  T/C: 91 % of control
endpoint: mean survival time, dose: 400.0 mg/kg/injection, schedule: Q01DX001 (ip), vehicle: saline with Tween-80
  T/C: 95 % of control

## O=C1c2ccccc2C(=O)c2c(Cl)cccc21
[8]
  T/C: 88 % of control
[3]
  T/C: 93 % of control
[9]
  T/C: 86 % of control
[4]
  T/C: 93 % of control
endpoint: mean survival time, dose: 400.0 mg/kg/injection, schedule: Q01DX009 (ip), vehicle: saline with Tween-80
  T/C: 90 % of control
[5]
  T/C: 91 % of control

## NCCCN1CCOCC1
[6]
  T/C: 98 % of control
[7]
  T/C: 101 % of control
endpoint: mean survival time, dose: 400.0 mg/kg/injection, schedule: Q01DX001 (ip), vehicle: saline
  T/C: 95 % of control

## O=C(Cc1ccccc1)C(Br)C(Br)c1ccccc1 (stereo not drawn)
[10]
  T/C: 107 % of control
[3]
  T/C: 92 % of control

## CCOC(=O)C(CC)CO (stereo not drawn)
endpoint: mean survival time, dose: 100.0 mg/kg/injection, schedule: Q04DX003 (ip), vehicle: saline
  T/C: 105 % of control
endpoint: mean survival time, dose: 200.0 mg/kg/injection, schedule: Q04DX003 (ip), vehicle: saline
  T/C: 103 % of control
endpoint: mean survival time, dose: 400.0 mg/kg/injection, schedule: Q04DX003 (ip), vehicle: saline
  T/C: 103 % of control

## Cc1ccc(S(=O)(=O)NN=C2CCC3(CC2)c2ccccc2-c2ccccc23)cc1
[11]
  T/C: 96 % of control
[12]
  T/C: 96 % of control
endpoint: mean survival time, dose: 400.0 mg/kg/injection, schedule: Q01DX001 (ip), vehicle: Klucel (hydroxypropylcellulose) (HPC)
  T/C: 98 % of control

## CCOC(=O)c1ccc2c(c1)Cc1cc(N)ccc1-2
endpoint: mean survival time, dose: 100.0 mg/kg/injection, schedule: Q01DX001 (ip), vehicle: carboxymethylcellulose (CMC)
  T/C: 98 % of control
endpoint: mean survival time, dose: 200.0 mg/kg/injection, schedule: Q01DX001 (ip), vehicle: carboxymethylcellulose (CMC)
  T/C: 95 % of control

## CN(C)c1ncnc(-c2ccncc2)n1
[1]
  T/C: 88 % of control
[2]
  T/C: 100 % of control

## CC(=O)O[C@@H]1CO[C@H]2O[C@H]3[C@@H](C(C=O)=C[C@H](O)[C@@H]4C5=C(C(C)C)CC[C@]5(C)CC[C@@]34C)[C@@]2(O)C1=O
endpoint: mean survival time, dose: 0.75 mg/kg/injection, schedule: Q01DX009 (ip), vehicle: Klucel (hydroxypropylcellulose) (HPC)
  T/C: 104 % of control
endpoint: mean survival time, dose: 1.5 mg/kg/injection, schedule: Q01DX009 (ip), vehicle: Klucel (hydroxypropylcellulose) (HPC)
  T/C: 104 % of control
endpoint: mean survival time, dose: 3.0 mg/kg/injection, schedule: Q01DX009 (ip), vehicle: Klucel (hydroxypropylcellulose) (HPC)
  T/C: 104 % of control
endpoint: mean survival time, dose: 6.0 mg/kg/injection, schedule: Q01DX009 (ip), vehicle: Klucel (hydroxypropylcellulose) (HPC)
  T/C: 107 % of control

## N#CC(C#N)=Cc1cc2ccccc2c2ccccc12
[3]
  T/C: 109 % of control
[4]
  T/C: 97 % of control
[5]
  T/C: 101 % of control

## O=S1(=O)OCCCC1=C(c1ccccc1)c1ccccc1
endpoint: mean survival time, dose: 75.0 mg/kg/injection, schedule: Q01DX009 (ip), vehicle: saline
  T/C: 102 % of control
endpoint: mean survival time, dose: 75.0 mg/kg/injection, schedule: Q04DX003 (ip), vehicle: saline
  T/C: 101 % of control
endpoint: mean survival time, dose: 150.0 mg/kg/injection, schedule: Q01DX009 (ip), vehicle: saline
  T/C: 97 % of control
endpoint: mean survival time, dose: 150.0 mg/kg/injection, schedule: Q04DX003 (ip), vehicle: saline
  T/C: 94 % of control
endpoint: mean survival time, dose: 300.0 mg/kg/injection, schedule: Q01DX009 (ip), vehicle: saline
  T/C: 97 % of control
endpoint: mean survival time, dose: 300.0 mg/kg/injection, schedule: Q04DX003 (ip), vehicle: saline
  T/C: 97 % of control

## Nc1ncc(C2OC(CO)C(O)C2O)c(=O)[nH]1 (stereo not drawn)
endpoint: median survival time, dose: 64.0 mg/kg/injection, schedule: Q01DX005 (ip), vehicle: saline
  T/C: 160 % of control
endpoint: median survival time, dose: 128.0 mg/kg/injection, schedule: Q01DX005 (ip), vehicle: saline
  T/C: 162 % of control and 243 % of control
endpoint: median survival time, dose: 256.0 mg/kg/injection, schedule: Q01DX005 (ip), vehicle: saline
  T/C: 94 % of control

## Cc1ccc2c(c1)CC(C)(C)O2
endpoint: mean survival time, dose: 50.0 mg/kg/injection, schedule: Q01DX001 (ip), vehicle: Klucel (hydroxypropylcellulose) (HPC)
  T/C: 102 % of control
[11]
  T/C: 93 % of control
[12]
  T/C: 102 % of control

## CC(=O)[O][Hg][c]1ccccc1
endpoint: mean survival time, dose: 12.5 mg/kg/injection, schedule: Q01DX001 (ip), vehicle: Klucel (hydroxypropylcellulose) (HPC)
  T/C: 100 % of control
endpoint: mean survival time, dose: 12.5 mg/kg/injection, schedule: Q01DX009 (ip), vehicle: saline with Tween-80
  T/C: 106 % of control
endpoint: mean survival time, dose: 25.0 mg/kg/injection, schedule: Q01DX001 (ip), vehicle: Klucel (hydroxypropylcellulose) (HPC)
  T/C: 106 % of control
[10]
  T/C: 98 % of control

— PubChem BioAssay AID256 (DTP/NCI, 2004)
